# Source: ChEMBL document CHEMBL5260814, “Design strategies in the prodrugs of HIV-1 protease inhibitors to improve the pharmaceutical properties” (Eur J Med Chem, 2017)
# Columns and labels:
# [1] = Cmax in rat in presence of Ritonavir; format: ADME; settings: in vivo
# [2] = AUC in rat in presence of Ritonavir; format: ADME; set-up: concentration or dose not given beside the values; settings: in vivo
# [3] = Solubility of compound; format: physicochemical
# [4] = Metabolic stability in rat liver microsome assessed as half life […]; format: ADME; settings: liver microsomes
# [5] = Water solubility of compound; format: physicochemical
# [6] = Stability of compound in PBS at pH 7.4 assessed as half life; format: physicochemical
# [7] = Stability of compound in PBS at pH 4.9 assessed as half life; format: physicochemical
# [8] = Stability of compound in PBS at pH 5.5 assessed as half life; format: physicochemical
Cmax ([1]; read-out: Cmax) [ng/mL],AUC ([2]; read-out: AUC) [ng·h/mL],Compound,further results
517,4220,Cc1nc(COc2ccc(C[C@H](NC(=O)O[C@H]3CO[C@H]4OCC[C@H]43)[C@@H](CN(CC(C)C)S(=O)(=O)c3ccc4c(c3)OCO4)OC(=O)COC(=O)[C@@H](N)CCCCN)cc2)cs1,
460,> 5000,Cc1nc(COc2ccc(C[C@H](NC(=O)O[C@H]3CO[C@H]4OCC[C@H]43)[C@@H](CN(CC(C)C)S(=O)(=O)c3ccc4c(c3)OCO4)OC(=O)CONC(=N)N)cc2)cs1,
401,4020,Cc1cccc(CN(C)CCOCC(=O)O[C@H](CN(CC(C)C)S(=O)(=O)c2ccc3c(c2)OCO3)[C@H](Cc2ccc(OCc3csc(C)n3)cc2)NC(=O)O[C@H]2CO[C@H]3OCC[C@H]32)n1,
1280,> 4000,Cc1nc(COc2ccc(C[C@H](NC(=O)O[C@H]3CO[C@H]4OCC[C@H]43)[C@@H](CN(CC(C)C)S(=O)(=O)c3ccc4c(c3)OCO4)OC(=O)COC(=O)CN3CCOCC3)cc2)cs1,
791,5350,Cc1nc(COc2ccc(C[C@H](NC(=O)O[C@H]3CO[C@H]4OCC[C@H]43)[C@@H](CN(CC(C)C)S(=O)(=O)c3ccc4c(c3)OCO4)OC(=O)COC(=O)CN(C)CCc3ccccn3)cc2)cs1,
318,3690,CCN(CC)CC(=O)OCC(=O)O[C@H](CN(CC(C)C)S(=O)(=O)c1ccc2c(c1)OCO2)[C@H](Cc1ccc(OCc2csc(C)n2)cc1)NC(=O)O[C@H]1CO[C@H]2OCC[C@H]21,
776,3960,Cc1nc(COc2ccc(C[C@H](NC(=O)O[C@H]3CO[C@H]4OCC[C@H]43)[C@@H](CN(CC(C)C)S(=O)(=O)c3ccc4c(c3)OCO4)OC(=O)COC(=O)[C@@H](N)CC(C)C)cc2)cs1,
603,7040,Cc1nc(COc2ccc(C[C@H](NC(=O)O[C@H]3CO[C@H]4OCC[C@H]43)[C@@H](CN(CC(C)C)S(=O)(=O)c3ccc4c(c3)OCO4)OC(=O)COCC(=O)Nc3ccn[nH]3)cc2)cs1,
407,4710,COCCN(C)CC(=O)OCC(=O)O[C@H](CN(CC(C)C)S(=O)(=O)c1ccc2c(c1)OCO2)[C@H](Cc1ccc(OCc2csc(C)n2)cc1)NC(=O)O[C@H]1CO[C@H]2OCC[C@H]21,
640,6810,Cc1nc(COc2ccc(C[C@H](NC(=O)O[C@H]3CO[C@H]4OCC[C@H]43)[C@@H](CN(CC(C)C)S(=O)(=O)c3ccc4c(c3)OCO4)OC(=O)COCC(=O)NCc3ccccn3)cc2)cs1,
272,> 7700,Cc1nc(COc2ccc(C[C@H](NC(=O)O[C@H]3CO[C@H]4OCC[C@H]43)[C@@H](CN(CC(C)C)S(=O)(=O)c3ccc4c(c3)OCO4)OC(=O)CO[n+]3ccccc3)cc2)cs1,
356,5600,CNCC(=O)OCC(=O)O[C@H](CN(CC(C)C)S(=O)(=O)c1ccc2c(c1)OCO2)[C@H](Cc1ccc(OCc2csc(C)n2)cc1)NC(=O)O[C@H]1CO[C@H]2OCC[C@H]21,
1280,> 4000,COCCN(CCOC)CC(=O)OCC(=O)O[C@H](CN(CC(C)C)S(=O)(=O)c1ccc2c(c1)OCO2)[C@H](Cc1ccc(OCc2csc(C)n2)cc1)NC(=O)O[C@H]1CO[C@H]2OCC[C@H]21,
322,> 5000,Cc1nc(COc2ccc(C[C@H](NC(=O)O[C@H]3CO[C@H]4OCC[C@H]43)[C@@H](CN(CC(C)C)S(=O)(=O)c3ccc4c(c3)OCO4)OC(=O)COCCn3ccnc3)cc2)cs1,

# More lines, now with the values behind:
Compound,Cmax ([1]; read-out: Cmax) [ng/mL],AUC ([2]; read-out: AUC) [ng·h/mL],further results
Cc1nc(COc2ccc(C[C@H](NC(=O)O[C@H]3CO[C@H]4OCC[C@H]43)[C@H](O)CN(CC(C)C)S(=O)(=O)c3ccc4c(c3)OCO4)cc2)cs1 [BRECANAVIR],,,Cmax [1]: 696 ng/mL; AUC [2]: 1960 ng·h/mL
Cc1cccc(C)c1OCC(=O)N[C@@H](Cc1ccccc1)[C@H](OC(=O)CCC(=O)NCCCN1CCOCC1)C(=O)N1CSC(C)(C)[C@H]1C(=O)NC(C)(C)C,,,solubility [3]: 73.6 mg/mL
CC(C)[C@@H](N)C(=O)N[C@@H](C(=O)O[C@H](CN1C[C@H]2CCCC[C@H]2C[C@H]1C(=O)NC(C)(C)C)[C@H](Cc1ccccc1)NC(=O)[C@H](CC(N)=O)NC(=O)c1ccc2ccccc2n1)C(C)C,,,half-life [4]: 296 min
Cc1cccc(C)c1OCC(=O)N[C@@H](Cc1ccccc1)[C@H](O)C(=O)N1CSC[C@H]1C(=O)NC(C)(C)C,,,solubility [5]: 0.023 mg/mL
Cc1cccc(C)c1OCC(=O)O[C@H](C(=O)N1CSC(C)(C)[C@H]1C(=O)NC(C)(C)C)[C@@H](N)Cc1ccccc1.Cl,,,half-life [6]: < 1 min; half-life [7]: 24.8 min; half-life [8]: 4.5 min
Cc1cccc(C)c1OCC(=O)O[C@H](C(=O)N1CSC[C@H]1C(=O)NC(C)(C)C)[C@@H](N)Cc1ccccc1.Cl,,,half-life [6]: < 1 min; half-life [7]: 23.8 min; half-life [8]: 4.2 min; solubility [5]: 15 mg/mL
Cc1cccc(C)c1OCC(=O)N[C@@H](Cc1ccccc1)[C@H](OC(=O)CCCC(=O)NCCN1CCOCC1)C(=O)N1CSC(C)(C)[C@H]1C(=O)NC(C)(C)C,,,solubility [3]: 57.1 mg/mL
Cc1cccc(C)c1OCC(=O)N[C@@H](Cc1ccccc1)[C@H](OC(=O)CCC(=O)NCc1ccccn1)C(=O)N1CSC(C)(C)[C@H]1C(=O)NC(C)(C)C,,,solubility [3]: 31.9 mg/mL
Cc1cccc(C)c1OCC(=O)N[C@@H](Cc1ccccc1)[C@H](OC(=O)CCC(=O)NCc1ccncc1)C(=O)N1CSC(C)(C)[C@H]1C(=O)NC(C)(C)C,,,solubility [3]: 91.5 mg/mL
Cc1cccc(C)c1OCC(=O)N[C@@H](Cc1ccccc1)[C@H](OC(=O)CCC(=O)NCCN1CCCC1)C(=O)N1CSC(C)(C)[C@H]1C(=O)NC(C)(C)C,,,solubility [3]: 93.8 mg/mL
Cc1ccccc1OCC(=O)N[C@@H](Cc1ccccc1)[C@H](O)C(=O)N1CSC(C)(C)[C@H]1C(=O)NC(C)(C)C,,,solubility [5]: 0.018 mg/mL
Cc1cccc(C)c1OCC(=O)N[C@@H](Cc1ccccc1)[C@H](OC(=O)CCC(=O)NCCN)C(=O)N1CSC(C)(C)[C@H]1C(=O)NC(C)(C)C,,,solubility [3]: 77.1 mg/mL
Cc1nc(COc2ccc(C[C@H](NC(=O)O[C@H]3CO[C@H]4OCC[C@H]43)[C@@H](CN(CC(C)C)S(=O)(=O)c3ccc4c(c3)OCO4)OC(=O)COCCOCC(=O)N(C)CCc3ccccn3)cc2)cs1,513,4220,
CC(C)(C)NC(=O)[C@H]1N(C(=O)[C@@H](O)[C@H](Cc2ccccc2)NC(=O)COc2ccccc2)CSC1(C)C,,,solubility [5]: 0.047 mg/mL
Cc1cccc(C)c1OCC(=O)N[C@@H](Cc1ccccc1)[C@H](OC(=O)CCC(=O)NCCN1CCCCC1)C(=O)N1CSC(C)(C)[C@H]1C(=O)NC(C)(C)C,,,solubility [3]: 47.8 mg/mL
CC(C)(C)NC(=O)[C@@H]1CSCN1C(=O)[C@@H](O)[C@H](Cc1ccccc1)NC(=O)COc1ccccc1,,,solubility [5]: 0.123 mg/mL
Cc1ccccc1OCC(=O)N[C@@H](Cc1ccccc1)[C@H](O)C(=O)N1CSC[C@H]1C(=O)NC(C)(C)C,,,solubility [5]: 0.042 mg/mL
Cc1cccc(C)c1OCC(=O)N[C@@H](Cc1ccccc1)[C@H](OC(=O)CCC(=O)NCCN1CCOCC1)C(=O)N1CSC(C)(C)[C@H]1C(=O)NC(C)(C)C,,,solubility [3]: 53.2 mg/mL
Cc1cccc(C)c1OCC(=O)N[C@@H](Cc1ccccc1)[C@H](OC(=O)CCC(=O)NCc1cccnc1)C(=O)N1CSC(C)(C)[C@H]1C(=O)NC(C)(C)C,,,solubility [3]: 30.3 mg/mL
Cc1cccc(C)c1OCC(=O)N[C@@H](Cc1ccccc1)[C@H](OC(=O)CCCC(=O)NCCN)C(=O)N1CSC(C)(C)[C@H]1C(=O)NC(C)(C)C,,,solubility [3]: 50.3 mg/mL
